Experimental findings from patent US8017558B2, “Carboxamides for controlling micro-organisms in plant and material protection” (priority 2005, dated 2011) are described below.

Data set [1] in a line: logP determination by HPLC on reversed-phase column (C 18), EEC Directive 79/831 Annex V.A8. Type of data set: physicochemical. The settings on record: for chromatographic logP: reversed-phase HPLC column (C 18). How it is done: The logP values given in the Tables and Preparation Examples above are determined in accordance with EEC Directive 79/831 Annex V.A8 by HPLC (High Performance Liquid Chromatography) on a reversed-phase column (C 18). Temperature: 43° C. The determination is carried out in the acidic range at pH 2.3 using the mobile phases 0.1% aqueous phosphoric acid and acetonitrile; linear gradient from 10% acetonitrile to 90% acetonitrile. The determination is carried out in the neutral range at pH 7.5 using the mobile phases 0.01-molar aqueous phosphate buffer solution and acetonitrile; linear gradient from 10% acetonitrile to 90% acetonitrile. Calibration is carried out using unbranched alkan-2-ones (having 3 to 16 carbon atoms), with known logP values (determination of the logP values by the retention times using linear interpolation between two successive alkanones).

The next data set has as its system Alternaria solani. Kind of data set: Alternaria Test (tomato)/protective. In kind it is in vivo. The settings on record: protective spray, application rate 500 ppm, evaluation 7 days after inoculation. How it is done: Alternaria Test (Tomato)/Protective
To produce a suitable preparation of active compound, 1 part by weight of active compound is mixed with the stated amounts of solvent and emulsifier and the concentrate is diluted with water to the desired concentration. To test for protective activity, young tomato plants are sprayed with the active compound preparation at the stated application rate. 1 day after the treatment, the plants are inoculated with a spore suspension of Alternaria solani and then remain at 100% relative atmospheric humidity and 20° C. for 24 h. The plants then remain at 96% relative atmospheric humidity and a temperature of 20° C. Evaluation is carried out 7 days after the inoculation. 0% means an efficacy which corresponds to that of the control, whereas an efficacy of 100% means that no infection is observed.

The next data set relates to Venturia inaequalis. Description: Venturia Test (apple)/protective. The note with it: protective spray, application rate 100 ppm, evaluation 10 days after inoculation. In kind it is in vivo. How it is done: Venturia Test (Apple)/Protective
(§1) To produce a suitable preparation of active compound, 1 part by weight of active compound is mixed with the stated amounts of solvents and emulsifier and the concentrate is diluted with water to the desired concentration. To test for protective activity, young plants are sprayed with the active compound preparation at the stated application rates. After the spray coating has dried on, the plants are inoculated with an aqueous conidia suspension of the apple scab pathogen Venturia inaequalis and then remain in an incubation cabin at about 20° C. and 100% relative atmospheric humidity for 1 day. The plants are then placed in a greenhouse at about 21° C. and a relative atmospheric humidity of about 90%. Evaluation is carried out 10 days after the inoculation. 0% means an efficacy which corresponds to that of the control, whereas an efficacy of 100% means that no infection is observed.

Another data set has as its system Uromyces appendiculatus. Kind of data set: Uromyces Test (bean)/protective. Type of data set: in vivo. The settings on record: protective spray, application rate 100 ppm, evaluation 10 days after inoculation. On the procedure:
Uromyces Test (Bean)/Protective
as §1, with “rate.” for “rates.”, “spore” for “conidia”, “bean rust” for “apple scab”, “Uromyces appendiculatus” for “Venturia inaequalis”, “cabinet” for “cabin”

In a further data set the test system is Sphaerotheca fuliginea. Kind of data set: Sphaerotheca Test (cucumber)/protective. Type of data set: in vivo. The note with it: protective spray, application rate 100 ppm, evaluation 7 days after inoculation. How it is done:
Sphaerotheca Test (Cucumber)/Protective
To produce a suitable preparation of active compound, 1 part by weight of active compound is mixed with the stated amounts of solvents and emulsifier, and the concentrate is diluted with water to the desired concentration.
To test for protective activity, young plants are sprayed with the active compound preparation at the stated application rate. After the spray coating has dried on, the plants are inoculated with an aqueous spore suspension of Sphaerotheca fuliginea. The plants are then placed in a greenhouse at about 23° C. and a relative atmospheric humidity of about 70%.
Evaluation is carried out 7 days after the inoculation. 0% means an efficacy which corresponds to that of the control, whereas an efficacy of 100% means that no infection is observed.

The next data set has as its system Botrytis cinerea. Description: Botrytis Test (bean)/protective. In kind it is in vivo. The note with it: protective spray, application rate 250 ppm, evaluation 2 days after inoculation. On the procedure: Botrytis Test (Bean)/Protective
To produce a suitable preparation of active compound, 1 part by weight of active compound is mixed with the stated amounts of solvents and emulsifier and the concentrate is diluted with water to the desired concentration. To test for protective activity, young plants are sprayed with the active compound preparation at the stated application rate. After the spray coating has dried on, 2 small pieces of agar colonized by Botrytis cinerea are placed onto each leaf. The inoculated plants are placed in a dark chamber at about 20° C. and 100% relative atmospheric humidity. The size of the infected areas on the leaves is evaluated 2 days after the inoculation. 0% means an efficacy which corresponds to that of the control, whereas an efficacy of 100% means that no infection is observed.

For another data set, the system named is Puccinia recondita. Description: Puccinia Test (wheat)/protective. Type of data set: in vivo. The settings on record: protective spray, application rate 1000 ppm, evaluation 10 days after inoculation. How it is done: Puccinia Test (Wheat)/Protective
(§2) To produce a suitable preparation of active compound, 1 part by weight of active compound is mixed with the stated amounts of solvent and emulsifier and the concentrate is diluted with water to the desired concentration. To test for protective activity, young plants are sprayed with the active compound preparation at the stated application rate. After the spray coating has dried on, the plants are sprayed with a conidia suspension of Puccinia recondita. The plants remain in an incubation cabin at 20° C. and 100% relative atmospheric humidity for 48 hours. The plants are then placed in a greenhouse at a temperature of about 20° C. and a relative atmospheric humidity of about 80% to promote the development of rust pustules. Evaluation is carried out 10 days after the inoculation. 0% means an efficacy which corresponds to that of the control, whereas an efficacy of 100% means that no infection is observed.

The subject of another data set is Pyrenophora teres. Kind of data set: Pyrenophora teres Test (barley)/protective. The settings on record: protective spray, application rate 1000 ppm, evaluation 8 days after inoculation. In kind it is in vivo. On the procedure: Pyrenophora teres Test (Barley)/Protective
as §2, with “of Pyrenophora teres.” for “of Puccinia recondita.”, “about 80%.” for “about 80% to promote the development of rust pustules.”, “out 8” for “out 10”

Where [2] appears, read: pH 2.3, 0.1% aqueous phosphoric acid/acetonitrile gradient, 43° C.

Consider `COCCSC(=Nc1ccccc1C1CC2CCC1C2)c1cn(C)nc1C(F)F` (stereo not drawn) [Compound 3], for which, in data set [1] (setting [2]), the “logP (pH 2.3)” value amounted to 4.62.
Same read-out and setting: with `Cn1cc(C(=Nc2ccccc2C2CC3CCC2C3)SCC#N)c(C(F)F)n1` (stereo not drawn) [Compound 6] the figure was 4.15; with `Cn1cc(C(=Nc2ccccc2C2CC3CCC2C3)SCSC#N)c(C(F)F)n1` (stereo not drawn) [Compound 7], 4.55.
On the same count and under the same terms, in the case of `C#CCSC(=Nc1ccccc1C1CC2CCC1C2)c1cn(C)nc1C(F)F` (stereo not drawn) [Compound 8] it was 4.65.
For `CS/C(=N\c1ccccc1C1CC2CCC1C2)c1cn(C)nc1C(F)F` (stereo not drawn) [Compound 9, methyl N-(2-bicyclo[2.2.1]hept-2-ylphenyl)-3-(difluoromethyl)-1-methyl-1H-pyrazole-4-carbimidothioate], the chromatographic logP in data set [1] (setting [2]) was 4.75.
As for `Cn1cc(C(=Nc2ccccc2C2CC3CCC2C3)SCCO)c(C(F)F)n1` (stereo not drawn) [Compound 10], the “logP (pH 2.3)” value in data set [1] (pH 2.3) stood at 3.23. For the same compound, the Efficacy in % with Alternaria solani, in the data set on Venturia inaequalis, in the data set on Uromyces appendiculatus, with Sphaerotheca fuliginea and in the data set on Botrytis cinerea was 100% throughout.
Consider `CCOC(=O)CSC(=Nc1ccccc1C1CC2CCC1C2)c1cn(C)nc1C(F)F` (stereo not drawn) [Compound 11], for which, in data set [1] (pH 2.3), the “logP (pH 2.3)” value stood at 4.66. The Efficacy in % is recorded as 95% in the data set on Alternaria solani; 100% in the data set with Venturia inaequalis; 100% in the data set with Uromyces appendiculatus; 100% in the data set on Sphaerotheca fuliginea; 100% in the data set on Botrytis cinerea; 100% with Puccinia recondita. Further, the Efficacy in % with Pyrenophora teres came out at 100%.
Consider `Cn1cc(C(=Nc2ccccc2C2CC3CCC2C3)SCc2ccc(Cl)nc2)c(C(F)F)n1` (stereo not drawn) [Compound 12], for which the “logP (pH 2.3)” value in data set [1] (setting [2]) is recorded as 4.95.
Same read-out and setting: with `CCCCCCCCCCCCSC(=Nc1ccccc1C1CC2CCC1C2)c1cn(C)nc1C(F)F` (stereo not drawn) [Compound 13] the figure was 7.36; with `Cn1cc(C(=Nc2ccccc2C2CC3CCC2C3)SC(=O)C(C)(C)C)c(C(F)F)n1` (stereo not drawn) [Compound 18], 5.81.
Turning to `CCC1(C(=O)SC(=Nc2ccccc2C2CC3CCC2C3)c2cn(C)nc2C(F)F)C(C)C1(Cl)Cl` (stereo not drawn) [Compound 19], the “logP (pH 2.3)” value in data set [1] (pH 2.3) was found to be 6.52. The Efficacy in % is given as 90% in the data set with Alternaria solani; 99% in the data set on Venturia inaequalis; 96% with Uromyces appendiculatus; 93% in the data set with Puccinia recondita; 92% in the data set on Pyrenophora teres.
Turning to `Cn1cc(C(=Nc2ccccc2C2CC3CCC2C3)SC(=O)C2(C)CCCCC2)c(C(F)F)n1` (stereo not drawn) [Compound 20], the “logP (pH 2.3)” value in data set [1] (pH 2.3) is given as 6.66. In addition, the Efficacy in % was found to be 80% in the data set on Alternaria solani; 100% with Venturia inaequalis; 99% in the data set on Uromyces appendiculatus; 100% with Sphaerotheca fuliginea; 100% in the data set on Puccinia recondita; 100% with Pyrenophora teres.
Take `Cc1nn(C)c(F)c1C(=S)Nc1ccccc1C(C)CC(C)(C)C` (stereo not drawn) [II-1]: in data set [1] (pH 7.5, 0.01-molar aqueous phosphate buffer/acetonitrile gradient, 43° C.), the “logP (at pH 7.5)” value is 3.70 (at pH 7.5).
In turn, `Cn1cc(C(=S)Nc2ccccc2C2CC3CCC2C3)c(C(F)F)n1` (stereo not drawn) [II-7, N-(2-bicyclo[2.2.1]hept-2-ylphenyl)-3-(difluoromethyl)-1-methyl-1H-pyrazole-4-thiocarboxamide] had a chromatographic logP in data set [1] (setting [2]) of 3.66.
Still for that read-out and setting: with `Cn1cc(C(=NNc2ccccc2)Nc2ccccc2C2CC3CCC2C3)c(C(F)F)n1` (stereo not drawn) [II-8, N-(2-bicyclo[2.2.1]hept-2-ylphenyl)-3-(difluoromethyl)-1-methyl-N′-phenyl-1H-pyrazole-4-carbohydrazonamide] the figure was 3.66.
As to `Cn1cc(C(=NO)Nc2ccccc2C2CC3CCC2C3)c(C(F)F)n1` (stereo not drawn) [II-9], the “logP (pH 2.3)” value in data set [1] (setting [2]) turned out to be 2.88.
